Data: the NIST ThermoML archive (doi:10.1016/j.jct.2007.07.001)

Experiments:
[1] = molar heat capacity at constant pressure; conditions: 101 kPa, Liquid, Large sample (1 g) DSC
[2] = molar heat capacity at constant pressure; xn = mol fraction of the nth substance listed; conditions: 101 kPa, Liquid, Large sample (1 g) DSC

CCCCCCn1cc[n+](C)c1.F[B-](F)(F)F [1-hexyl-3-methylimidazolium tetrafluoroborate]
[1]
Conditions | molar heat capacity at constant pressure [J/K/mol]
283.15 K | 423.2
288.15 K | 425.8
293.15 K | 428.4
298.15 K | 431
303.15 K | 433.6
308.15 K | 436.2
313.15 K | 438.8
318.15 K | 441.4
323.15 K | 444

CCCCCCn1cc[n+](C)c1.F[B-](F)(F)F [1-hexyl-3-methylimidazolium tetrafluoroborate] + CO
molar heat capacity at constant pressure [J/K/mol], [2]
Conditions | 283.15 K | 288.15 K | 293.15 K | 298.15 K | 303.15 K | 308.15 K | 313.15 K | 318.15 K | 323.15 K
x1 = 0.0751 | 108 | 108.7 | 109.5 | 110.3 | 111.2 | 112.2 | 113.2 | 114.2 | 115.3
x1 = 0.1511 | 135.5 | 136.4 | 137.4 | 138.3 | 139.3 | 140.3 | 141.3 | 142.4 | 143.4
x1 = 0.2973 | 187.2 | 188.1 | 188.9 | 189.9 | 190.8 | 191.8 | 192.9 | 193.9 | 195.1
x1 = 0.397 | 220.7 | 221.7 | 222.8 | 223.9 | 225.1 | 226.3 | 227.5 | 228.8 | 230.1
x1 = 0.6423 | 301.9 | 303.6 | 305.3 | 307 | 308.7 | 310.5 | 312.3 | 314.1 | 315.9
x1 = 0.8759 | 380.4 | 382.7 | 385 | 387.4 | 389.7 | 392.1 | 394.5 | 396.9 | 399.3
x1 = 1 | 423.2 | 425.8 | 428.4 | 431 | 433.6 | 436.2 | 438.8 | 441.4 | 444

CCCCCCCC[n+]1ccn(C)c1.F[B-](F)(F)F [1-methyl-3-octylimidazolium tetrafluoroborate]
[1]
Conditions | molar heat capacity at constant pressure [J/K/mol]
283.15 K | 490.1
288.15 K | 493.2
293.15 K | 496.3
298.15 K | 499.4
303.15 K | 502.5
308.15 K | 505.4
313.15 K | 508.4
318.15 K | 511.3
323.15 K | 514.2

CCCCCCCC[n+]1ccn(C)c1.F[B-](F)(F)F [1-methyl-3-octylimidazolium tetrafluoroborate] + CO
molar heat capacity at constant pressure [J/K/mol], [2]
Conditions | 283.15 K | 288.15 K | 293.15 K | 298.15 K | 303.15 K | 308.15 K | 313.15 K | 318.15 K | 323.15 K
x1 = 0.0736 | 111.8 | 112.7 | 113.6 | 114.6 | 115.6 | 116.6 | 117.7 | 118.9 | 120.1
x1 = 0.1652 | 151.5 | 152.6 | 153.7 | 154.7 | 155.9 | 157 | 158.1 | 159.3 | 160.4
x1 = 0.3441 | 226.4 | 227.4 | 228.5 | 229.6 | 230.8 | 232.1 | 233.5 | 235 | 236.6
x1 = 0.4516 | 269.5 | 270.8 | 272.1 | 273.5 | 275 | 276.6 | 278.2 | 279.9 | 281.6
x1 = 0.6526 | 349.3 | 351.3 | 353.3 | 355.3 | 357.4 | 359.6 | 361.8 | 364 | 366.4
x1 = 0.8472 | 427.6 | 430.3 | 433 | 435.7 | 438.4 | 441.1 | 443.7 | 446.3 | 448.9
x1 = 1 | 490.1 | 493.2 | 496.3 | 499.4 | 502.5 | 505.4 | 508.4 | 511.3 | 514.2

CO [methanol]
[1]
Conditions | molar heat capacity at constant pressure [J/K/mol]
283.15 K | 78.6
288.15 K | 79.5
293.15 K | 80.4
298.15 K | 81.3
303.15 K | 82.3
308.15 K | 83.4
313.15 K | 84.5
318.15 K | 85.7
323.15 K | 87

CO [methanol] + CCCCCCCC[n+]1ccn(C)c1.F[B-](F)(F)F
[2], x2 = 0
Conditions | molar heat capacity at constant pressure [J/K/mol]
283.15 K | 78.6
288.15 K | 79.5
293.15 K | 80.4
298.15 K | 81.3
303.15 K | 82.3
308.15 K | 83.4
313.15 K | 84.5
318.15 K | 85.7
323.15 K | 87

CO [methanol] + CCCCCCn1cc[n+](C)c1.F[B-](F)(F)F
[2], x2 = 0
Conditions | molar heat capacity at constant pressure [J/K/mol]
283.15 K | 78.6
288.15 K | 79.5
293.15 K | 80.4
298.15 K | 81.3
303.15 K | 82.3
308.15 K | 83.4
313.15 K | 84.5
318.15 K | 85.7
323.15 K | 87
